Results: the supplement of paper PMC8671470

Columns and labels:
Test in all cases: cell viability (% survival relative to DMSO control, bortezomib = 0%); higher = less cytotoxic
Conditions in all cases: 72 h
HEL = system: HEL
How it was run: (§1)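 Fifteen myeloid leukaemia cell lines were exposed to compounds at 1, 10, 100, 1000 or 10000 nM in 384-well plates for 72 h at 37 °C and 5% CO2. Viability was read by CellTiter-Glo luminescence and normalised, with vehicle as 100% and a 10 µM positive control as 0%. Values are percent survival averaged over duplicates.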

SHI-1 = system: SHI-1
How it was run: as §1

LAMA-84 = system: LAMA-84
How it was run: as §1

NOMO-1 = system: NOMO-1
How it was run: as §1

| SMILES | cell viability (HEL; 1 nM) | cell viability (HEL; 10 nM) | cell viability (HEL; 100 nM) | cell viability (HEL; 1000 nM) | cell viability (HEL; 10000 nM) | cell viability (SHI-1; 1 nM) | cell viability (SHI-1; 10 nM) | cell viability (SHI-1; 100 nM) | cell viability (SHI-1; 1000 nM) | cell viability (SHI-1; 10000 nM) | cell viability (LAMA-84; 1 nM) | cell viability (LAMA-84; 10 nM) | cell viability (LAMA-84; 100 nM) | cell viability (LAMA-84; 1000 nM) | cell viability (LAMA-84; 10000 nM) | cell viability (NOMO-1; 1 nM) | cell viability (NOMO-1; 10 nM) | cell viability (NOMO-1; 100 nM) | cell viability (NOMO-1; 1000 nM) | cell viability (NOMO-1; 10000 nM) |
| --- | --- | --- | --- | --- | --- | --- | --- | --- | --- | --- | --- | --- | --- | --- | --- | --- | --- | --- | --- | --- |
| NC(=O)c1ncn([C@@H]2O[C@H](CO)[C@@H](O)[C@H]2O)n1 [Ribavirin] | 92.5% | 104% | 111% | 113% | 112% | 105% | 112% | 111% | 111% | 111% | 84.9% | 98.2% | 101% | 110% | 89.8% | 99% | 102% | 103% | 106% | 103% |
| Oc1cc(Cl)ccc1Oc1ccc(Cl)cc1Cl [Triclosan] | 118% | 110% | 86.3% | 105% | 108% | 105% | 96% | 98.3% | 101% | 103% | 102% | 91.1% | 103% | 108% | 66.5% | 102% | 89% | 99.3% | 104% | 105% |
| O=C1Oc2ccccc2C(=O)C1CC1C(=O)Oc2ccccc2C1=O (centres undefined) [Dicumarol] | 109% | 102% | 92% | 101% | 107% | 95.8% | 105% | 104% | 106% | 105% | 97.3% | 107% | 95.5% | 103% | 105% | 99.4% | 101% | 98.8% | 109% | 96.3% |
| CC(C)Cc1sc(N)nc1-c1ccc(P(=O)(O)O)o1 | 95.3% | 93.1% | 118% | 109% | 85.5% | 106% | 98.3% | 106% | 98.7% | 104% | 111% | 97.4% | 102% | 94.4% | 80.3% | 97.7% | 96.9% | 98% | 99.5% | 83.9% |
| CN(C)c1nc(O)c2[nH]cnc2n1 [2-Dimethylamino-6-hydroxypurine] | 105% | 85.3% | 114% | 106% | 84.8% | 104% | 90.8% | 94.8% | 99.9% | 98.2% | 101% | 104% | 97.7% | 99.3% | 103% | 101% | 95.9% | 108% | 102% | 105% |
| COc1c(C)c2c(c(O)c1C/C=C(\C)CCC(=O)O)C(=O)OC2 [Mycophenolic acid] | 94.5% | 108% | 104% | 51.7% | 3.56% | 105% | 104% | 92% | 77.2% | 14.4% | 106% | 93.2% | 108% | 46.8% | 16.9% | 103% | 96.6% | 106% | 89.2% | 24.7% |
| O=C(O)C(Cl)Cl [Dichloroacetate] | 102% | 102% | 101% | 97% | 103% | 99.7% | 104% | 96.8% | 101% | 103% | 101% | 100% | 98% | 101% | 99.3% | 101% | 98.9% | 102% | 102% | 103% |
| O=C(O)c1cc2sccc2[nH]1 [4H-thieno[3,2-b]pyrrole-5-carboxylic acid] | 120% | 106% | 97.5% | 93.5% | 108% | 108% | 96.4% | 90.4% | 97% | 107% | 101% | 99.3% | 110% | 95.4% | 105% | 105% | 97.8% | 98.3% | 106% | 110% |
| CCOc1ccc(Cc2cc([C@@H]3O[C@H](CO)[C@@H](O)[C@H](O)[C@H]3O)ccc2Cl)cc1 [Dapagliflozin] | 99.9% | 102% | 75.6% | 97.7% | 122% | 99.4% | 114% | 85.2% | 91.1% | 107% | 98.1% | 111% | 89.7% | 97.7% | 90.5% | 95.2% | 101% | 88.1% | 104% | 97% |
| CCN(CC)CCN(Cc1ccc(-c2ccc(C(F)(F)F)cc2)cc1)C(=O)Cn1c(SCc2ccc(F)cc2)nc(=O)c2c1CCC2 [Darapladib] | 99.5% | 103% | 105% | 91.1% | -0.527% | 107% | 107% | 97.4% | 90.6% | -0.412% | 101% | 83.5% | 99.7% | 80.6% | -0.44% | 98.6% | 98.8% | 97% | 93.8% | -0.418% |
| Nc1ncnc2c1ncn2[C@@H]1O[C@H](CSCC[C@H](N)C(=O)O)[C@@H](O)[C@H]1O [S-Adenosyl Homocysteine] | 108% | 114% | 104% | 101% | 113% | 100% | 122% | 111% | 105% | 99.9% | 105% | 110% | 100% | 99.4% | 103% | 101% | 104% | 103% | 98.1% | 104% |
| [N-]=[N+]=CC(=O)CC[C@H](N)C(=O)O [6-Diazo-5-oxo-L-norleucine] | 98.6% | 109% | 98.5% | 95.1% | 96.6% | 110% | 101% | 103% | 104% | 99% | 98.5% | 98.8% | 101% | 97.7% | 100% | 98.9% | 99.9% | 104% | 97.1% | 106% |
| CCOC(=O)N1c2ccc(C(F)(F)F)cc2[C@@H](N(Cc2cc(C(F)(F)F)cc(C(F)(F)F)c2)C(=O)OC)C[C@H]1CC [Torcetrapib] | 102% | 96.9% | 134% | 103% | 109% | 94.8% | 105% | 132% | 114% | 99.8% | 116% | 103% | 110% | 95.6% | 110% | 103% | 99.4% | 102% | 99.1% | 99% |
| CC(C)C[C@H](NC(=O)[C@@H](O)[C@H](N)Cc1ccccc1)C(=O)O [Ubenimex] | 107% | 106% | – | 95.4% | 106% | 99.4% | 104% | 93.2% | 80.5% | 91.3% | 115% | 101% | 103% | 101% | 101% | 105% | 105% | 94.8% | 95.5% | 100% |
| CC(Cc1ccc(O)c(O)c1)C(C)Cc1ccc(O)c(O)c1 (centres undefined) [Masoprocol] | 114% | 106% | 137% | 114% | 79.8% | 97.1% | 96.2% | 118% | 93.3% | 70.1% | 95.8% | 95.7% | 106% | 95.5% | 94% | 97% | 104% | 101% | 111% | 56.2% |
| O=C1Nc2ccccc2/C1=C\NCCc1ccc(O)c(O)c1 [AC1NZZMF] | 101% | 99.5% | 104% | 112% | 96.9% | 88.8% | 108% | 89% | 103% | 90.8% | 107% | 108% | 102% | 101% | 107% | 105% | 111% | 98% | 113% | 99.9% |
| Clc1ccc(COC(Cn2ccnc2)c2ccc(Cl)cc2Cl)cc1 (centres undefined) [Econazole] | 106% | 90.4% | 99.1% | 99% | 77.3% | 112% | 91% | 98.8% | 87.2% | 62.1% | 103% | 95.5% | 91.8% | 92% | 58.1% | 105% | 84.8% | 98.2% | 93.2% | 89.1% |
| O=C(O)c1nn(Cc2ccc(Cl)cc2Cl)c2ccccc12 [Lonidamine] | 102% | 111% | 120% | 99.5% | 106% | 107% | 114% | 105% | 95.5% | 99.4% | 99.1% | 94.6% | 108% | 99.9% | 102% | 96.7% | 99.9% | 107% | 106% | 105% |
| CCOC(=O)[C@@]1(CCCCCCOc2ccc(Cl)cc2)CO1 [Etomoxir] | 105% | 99.6% | 105% | 93.3% | 84.5% | 107% | 108% | 110% | 105% | 104% | 94.9% | 110% | 106% | 58.5% | 62.7% | 99.5% | 101% | 104% | 92.1% | 102% |
| N[C@](CCCCB(O)O)(CCN1CCCCC1)C(=O)O [Arginase inhibitor 1] | 109% | 96.7% | 101% | 90.4% | 95.4% | 92% | 105% | 90.1% | 110% | 92.8% | 99.9% | 102% | 96.1% | 102% | 88.9% | 91.3% | 94.5% | 103% | 96.4% | 93.9% |
| O=C(COc1ccc(C(=O)c2ccccc2)cc1)NC1CCN(Cc2ccccc2)CC1 [AdipoRon] | 94.5% | 96.6% | 96.6% | 97.5% | 85.4% | 92.5% | 104% | 96% | 103% | 71.7% | 96.9% | 102% | 93.8% | 96.7% | 61.1% | 102% | 107% | 96.3% | 96.7% | 91.1% |
| Cl.OC[C@H]1NC[C@@H](O)[C@@H](O)[C@@H]1O [1-Deoxymannojirimycin hydrochloride] | 102% | 83.2% | 112% | 119% | 86.1% | 105% | 96.3% | 98.7% | 110% | 89.5% | 99.5% | 93.4% | 102% | 94% | 95.6% | 103% | 89.9% | 104% | 99.3% | 92.1% |
| C[C@H]1O[C@@H](O[C@H]2[C@@H](O)C[C@H](O[C@H]3[C@@H](O)C[C@H](O[C@H]4CC[C@@]5(C)[C@H](CC[C@@H]6[C@@H]5C[C@@H](O)[C@]5(C)[C@@H](C7=CC(=O)OC7)CC[C@]65O)C4)O[C@@H]3C)O[C@@H]2C)C[C@H](O)[C@@H]1O [Digoxin] | 97.3% | 92.9% | 49% | -0.296% | -0.0735% | 115% | 94.9% | 17.8% | 0.649% | 0.63% | 92.3% | 115% | 20.6% | 2.17% | 2.06% | 97.9% | 105% | 60.3% | -0.211% | -0.0253% |
| CC(C(=O)O)C(=O)O [Methylmalonate] | 87.5% | 100% | 109% | 81.5% | 95.3% | 98.9% | 83.3% | 105% | 88.7% | 97% | 89.2% | 101% | 106% | 98.2% | 90.3% | 95.4% | 94.6% | 97.2% | 94% | 96.1% |
